For test [1], the target named is Heat shock protein HSP 90-alpha (Homo sapiens, UniProt P07900). As to the kind of experiment: Luminescence-based dose response biochemical high throughput screening assay for inhibitors of the Heat Shock Protein 90 (HSP90). [Related pubchem assays: 1831 (Summary AID.), 1846 (Confirmation screen.), 1789 (Primary screen.)].
A short description of test [2]: Vero cell cytotoxicity, dose response, cytotoxicity control for Vif-APOBEC3G degradation inhibitor project, Vero cells (AID 1117358). Particulars: Human immunodeficiency virus 1, Vero. Format: functional.
For test [3], the target named is T1, Corticotropin-releasing factor receptor 2/Corticotropin-releasing factor-binding protein (Homo sapiens, UniProt P24387+Q13324).
T1 sequence (Q13324 whole entry): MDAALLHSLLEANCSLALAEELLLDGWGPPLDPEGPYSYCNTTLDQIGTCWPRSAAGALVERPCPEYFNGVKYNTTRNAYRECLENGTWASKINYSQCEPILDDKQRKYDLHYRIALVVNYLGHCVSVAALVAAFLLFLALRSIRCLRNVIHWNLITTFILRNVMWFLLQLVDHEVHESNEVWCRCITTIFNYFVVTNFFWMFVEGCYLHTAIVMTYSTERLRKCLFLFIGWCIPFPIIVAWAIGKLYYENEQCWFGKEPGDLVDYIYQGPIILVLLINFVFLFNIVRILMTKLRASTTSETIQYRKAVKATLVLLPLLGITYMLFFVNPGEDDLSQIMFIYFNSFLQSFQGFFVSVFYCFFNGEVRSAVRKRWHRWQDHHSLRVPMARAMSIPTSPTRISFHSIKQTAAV
T1 sequence (P24387 whole entry): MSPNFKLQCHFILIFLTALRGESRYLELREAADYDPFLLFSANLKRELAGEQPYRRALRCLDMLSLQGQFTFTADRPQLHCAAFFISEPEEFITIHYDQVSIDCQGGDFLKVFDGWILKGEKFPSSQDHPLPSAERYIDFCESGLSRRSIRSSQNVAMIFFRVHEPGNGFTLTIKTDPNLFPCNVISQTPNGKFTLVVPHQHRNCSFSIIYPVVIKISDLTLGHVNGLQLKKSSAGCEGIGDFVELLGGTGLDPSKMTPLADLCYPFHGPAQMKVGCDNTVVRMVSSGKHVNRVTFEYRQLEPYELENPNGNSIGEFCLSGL
Nature of the test: Dose Response confirmation of uHTS hits for small molecule antagonists of the CRF-binding protein and CRF-R2 receptor complex. Format: functional. Particulars: read-out: IC50_Mean.

Test [4] concerns the target T1, Corticotropin-releasing factor receptor 2/Corticotropin-releasing factor-binding protein. Nature of the test: activators of CRF receptor 2 with binding protein – uHTS hits, confirmation (AID 602473). Format: functional. Particulars: read-out: EC50_Mean.
The target in test [5] is E3 ubiquitin-protein ligase Mdm2 (Homo sapiens, UniProt Q00987). Nature of the test: enhancers of MDM2-luciferase reporter signal, concentration-effect titration, project on inhibitors of MDM2 ubiquitin ligase, cellular assay, luminescent readout, 384-well plate format (AID 1394).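 Further: MDM2 E3 inhibitors raise luminescence so EC50 is for signal enhancement.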 Format: functional.
Chain of E3 ubiquitin-protein ligase Mdm2 (Q00987 whole entry): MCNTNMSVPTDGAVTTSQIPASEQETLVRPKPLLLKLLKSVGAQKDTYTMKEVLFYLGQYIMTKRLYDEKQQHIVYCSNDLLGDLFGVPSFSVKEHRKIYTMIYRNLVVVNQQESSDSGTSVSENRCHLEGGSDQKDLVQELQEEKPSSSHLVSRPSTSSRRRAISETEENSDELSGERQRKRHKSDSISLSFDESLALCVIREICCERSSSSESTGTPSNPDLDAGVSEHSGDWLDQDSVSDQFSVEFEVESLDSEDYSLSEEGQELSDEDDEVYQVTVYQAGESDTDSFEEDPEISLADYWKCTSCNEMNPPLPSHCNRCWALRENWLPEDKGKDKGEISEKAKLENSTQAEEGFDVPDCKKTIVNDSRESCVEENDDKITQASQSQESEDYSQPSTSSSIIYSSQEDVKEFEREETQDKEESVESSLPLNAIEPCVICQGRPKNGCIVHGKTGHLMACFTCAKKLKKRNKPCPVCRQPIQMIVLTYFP
The target in test [6] is G-protein coupled receptor 55 (Homo sapiens, UniProt Q9Y2T6). As to the kind of experiment: GPR55 agonists via beta-arrestin recruitment, primary screen, imaging, U2OS cells, beta-arrestin-GFP redistribution (AID 1961). The test is classed as functional.
Chain of G-protein coupled receptor 55 (Q9Y2T6 whole entry): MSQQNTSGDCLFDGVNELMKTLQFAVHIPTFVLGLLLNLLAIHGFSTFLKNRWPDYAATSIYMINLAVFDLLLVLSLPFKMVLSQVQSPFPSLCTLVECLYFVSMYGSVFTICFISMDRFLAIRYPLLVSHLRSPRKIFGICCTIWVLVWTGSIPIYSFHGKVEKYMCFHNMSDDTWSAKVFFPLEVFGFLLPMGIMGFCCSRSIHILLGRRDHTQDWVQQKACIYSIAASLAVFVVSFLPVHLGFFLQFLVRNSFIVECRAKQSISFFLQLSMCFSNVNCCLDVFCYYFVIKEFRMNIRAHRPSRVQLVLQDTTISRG
Test [7] addresses T2, Oxysterols receptor LXR-beta (Homo sapiens, UniProt P55055).
T2 sequence (P55055 whole entry): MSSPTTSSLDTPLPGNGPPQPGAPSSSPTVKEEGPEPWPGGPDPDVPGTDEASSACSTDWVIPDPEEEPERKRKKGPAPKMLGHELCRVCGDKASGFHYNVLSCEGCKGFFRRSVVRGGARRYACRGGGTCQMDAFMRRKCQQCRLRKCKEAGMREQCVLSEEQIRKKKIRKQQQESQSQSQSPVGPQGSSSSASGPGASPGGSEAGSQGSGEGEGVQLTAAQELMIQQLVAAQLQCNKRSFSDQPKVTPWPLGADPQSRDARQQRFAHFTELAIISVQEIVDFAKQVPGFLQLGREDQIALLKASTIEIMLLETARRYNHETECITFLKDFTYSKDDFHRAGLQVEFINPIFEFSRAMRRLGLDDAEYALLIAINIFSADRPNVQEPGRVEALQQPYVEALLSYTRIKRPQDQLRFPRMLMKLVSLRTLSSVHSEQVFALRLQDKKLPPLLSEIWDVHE
Nature of the test: LXR agonists, Gal4 luciferase reporter, dose response, counter-screen for ssDAF-12 agonist project, cell-based, luminescence, HEK293, S. stercoralis campaign (AID 720737). The test is classed as functional. Particulars: read-out: IC50 (the source's name).

In test [8] the target is T2, Oxysterols receptor LXR-beta. The test is classed as functional, cell-based.
The nature of test [9]: Luminescence-based cell-based high throughput dose response assay to identify activators of the DAF-12 from the parasite S. stercoralis (ssDAF-12). The test is classed as functional.
A further test deals with T3, Protein skinhead-1 (Caenorhabditis elegans, UniProt P34707).
T3 sequence (P34707 whole entry): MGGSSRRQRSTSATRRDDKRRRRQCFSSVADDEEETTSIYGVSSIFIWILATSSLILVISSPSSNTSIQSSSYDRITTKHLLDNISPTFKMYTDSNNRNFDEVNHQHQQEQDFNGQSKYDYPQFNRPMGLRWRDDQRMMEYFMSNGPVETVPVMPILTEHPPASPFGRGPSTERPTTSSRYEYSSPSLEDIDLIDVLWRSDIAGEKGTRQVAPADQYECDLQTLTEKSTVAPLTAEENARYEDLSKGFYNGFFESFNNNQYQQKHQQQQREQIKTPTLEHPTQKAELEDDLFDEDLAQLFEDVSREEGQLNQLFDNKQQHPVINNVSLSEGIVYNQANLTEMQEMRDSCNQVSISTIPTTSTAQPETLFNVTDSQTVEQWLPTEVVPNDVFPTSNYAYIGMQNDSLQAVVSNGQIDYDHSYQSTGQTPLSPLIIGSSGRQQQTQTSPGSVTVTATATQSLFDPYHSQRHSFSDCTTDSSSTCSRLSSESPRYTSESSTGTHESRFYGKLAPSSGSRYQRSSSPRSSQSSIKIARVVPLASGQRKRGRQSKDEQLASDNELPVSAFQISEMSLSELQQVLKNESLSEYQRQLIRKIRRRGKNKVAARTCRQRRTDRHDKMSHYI
The test is classed as functional.

Test [10] can be described thus: HepG2 cell cytotoxicity, dose response, cytotoxicity control, cherry-picked samples (AID 1159577). The test is classed as functional, cell-based.
Test [11] can be described thus: P. falciparum Dd2 growth inhibitors, dose response, SYBR Green, cherry-picked samples (AID 1159567). The test is classed as functional, cell-based.
Test [12] has as its target T4, Low molecular weight phosphotyrosine protein phosphatase (Homo sapiens, UniProt P24666).
T4 sequence (P24666 whole entry): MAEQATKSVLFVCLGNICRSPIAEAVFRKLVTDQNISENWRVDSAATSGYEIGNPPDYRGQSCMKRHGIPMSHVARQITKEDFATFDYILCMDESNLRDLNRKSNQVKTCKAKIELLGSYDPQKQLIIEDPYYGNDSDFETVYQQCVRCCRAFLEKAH
As to the kind of experiment: LMPTP phosphatase inhibitors, colorimetric pNPP readout, dose response, orthogonal assay, biochemical, absorbance, pNPP substrate, LMPTP-A isoform, set 2 (AID 743308). Format: functional.

For test [13], the target named is T4, Low molecular weight phosphotyrosine protein phosphatase. Nature of the test: LMPTP phosphatase inhibitors, dose response, biochemical, OMFP substrate, fluorescence intensity, set 2 (AID 743307). Format: functional.
The target of test [14] is Muscarinic acetylcholine receptor M1 (Rattus norvegicus, UniProt P08482). As to the kind of experiment: rat M1 positive allosteric modulator potency, dose response, cell-based, calcium mobilization, CHO-K1, ACh EC20 (AID 2425). The test is classed as functional.
Chain of Muscarinic acetylcholine receptor M1 (P08482 whole entry): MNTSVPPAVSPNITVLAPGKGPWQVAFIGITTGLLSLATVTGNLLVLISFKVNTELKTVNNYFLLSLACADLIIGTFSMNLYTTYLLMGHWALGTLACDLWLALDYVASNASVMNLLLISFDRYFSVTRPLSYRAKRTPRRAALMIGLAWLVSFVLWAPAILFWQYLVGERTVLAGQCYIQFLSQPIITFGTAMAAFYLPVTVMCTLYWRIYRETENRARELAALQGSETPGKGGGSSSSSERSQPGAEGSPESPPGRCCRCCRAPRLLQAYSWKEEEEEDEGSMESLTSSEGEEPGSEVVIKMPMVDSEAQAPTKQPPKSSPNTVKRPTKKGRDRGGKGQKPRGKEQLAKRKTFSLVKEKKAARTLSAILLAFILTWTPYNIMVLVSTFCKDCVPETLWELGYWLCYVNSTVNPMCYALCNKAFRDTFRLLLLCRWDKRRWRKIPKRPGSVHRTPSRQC
A further test concerns the target Ephrin type-A receptor 4 (Mus musculus, UniProt Q03137). Nature of the test: inhibitors of EphA4 binding to KYL peptide, primary screen, biochemical, colorimetric, mouse EphA4 (AID 689). Format: functional.
For test [15], the target named is Ubiquitin carboxyl-terminal hydrolase BAP1 (Homo sapiens, UniProt Q92560). As to the kind of experiment: BAP1 deubiquitinase inhibitors, dose response, biochemical (AID 714). The test is classed as functional.
Chain of Ubiquitin carboxyl-terminal hydrolase BAP1 (Q92560 whole entry, the tested form may be a part): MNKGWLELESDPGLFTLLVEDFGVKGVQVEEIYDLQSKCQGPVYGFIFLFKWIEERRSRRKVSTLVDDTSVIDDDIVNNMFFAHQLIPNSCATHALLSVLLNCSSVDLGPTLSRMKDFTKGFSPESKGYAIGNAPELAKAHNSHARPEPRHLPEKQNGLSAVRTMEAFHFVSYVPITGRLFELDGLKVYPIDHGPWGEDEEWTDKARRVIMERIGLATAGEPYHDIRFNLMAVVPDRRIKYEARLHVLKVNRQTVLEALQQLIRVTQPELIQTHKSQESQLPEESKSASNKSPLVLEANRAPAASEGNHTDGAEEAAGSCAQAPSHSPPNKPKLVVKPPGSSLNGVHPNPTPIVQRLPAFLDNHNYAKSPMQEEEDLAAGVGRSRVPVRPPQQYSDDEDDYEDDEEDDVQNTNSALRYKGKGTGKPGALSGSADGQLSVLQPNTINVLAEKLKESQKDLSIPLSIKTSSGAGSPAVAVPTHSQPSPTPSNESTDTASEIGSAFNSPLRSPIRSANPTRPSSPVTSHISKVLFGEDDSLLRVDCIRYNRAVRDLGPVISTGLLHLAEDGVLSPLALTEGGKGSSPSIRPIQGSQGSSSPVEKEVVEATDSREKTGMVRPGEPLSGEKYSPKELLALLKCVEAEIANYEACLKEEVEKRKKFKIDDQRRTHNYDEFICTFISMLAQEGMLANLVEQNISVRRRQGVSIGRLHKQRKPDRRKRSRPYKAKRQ
For test [16], the target named is T5, Fatty acid synthase (Homo sapiens, UniProt P49327). As to the kind of experiment: FAS thioesterase domain inhibitors, dose response, biochemical, endpoint fluorescence intensity, uHTS hits (AID 624327).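 Further: fluorescence from hydrolysis of an O-methyl fluorescein acyl ester substrate by the enzyme.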 Format: functional.
T5 sequence (P49327 whole entry, the tested form may be a part): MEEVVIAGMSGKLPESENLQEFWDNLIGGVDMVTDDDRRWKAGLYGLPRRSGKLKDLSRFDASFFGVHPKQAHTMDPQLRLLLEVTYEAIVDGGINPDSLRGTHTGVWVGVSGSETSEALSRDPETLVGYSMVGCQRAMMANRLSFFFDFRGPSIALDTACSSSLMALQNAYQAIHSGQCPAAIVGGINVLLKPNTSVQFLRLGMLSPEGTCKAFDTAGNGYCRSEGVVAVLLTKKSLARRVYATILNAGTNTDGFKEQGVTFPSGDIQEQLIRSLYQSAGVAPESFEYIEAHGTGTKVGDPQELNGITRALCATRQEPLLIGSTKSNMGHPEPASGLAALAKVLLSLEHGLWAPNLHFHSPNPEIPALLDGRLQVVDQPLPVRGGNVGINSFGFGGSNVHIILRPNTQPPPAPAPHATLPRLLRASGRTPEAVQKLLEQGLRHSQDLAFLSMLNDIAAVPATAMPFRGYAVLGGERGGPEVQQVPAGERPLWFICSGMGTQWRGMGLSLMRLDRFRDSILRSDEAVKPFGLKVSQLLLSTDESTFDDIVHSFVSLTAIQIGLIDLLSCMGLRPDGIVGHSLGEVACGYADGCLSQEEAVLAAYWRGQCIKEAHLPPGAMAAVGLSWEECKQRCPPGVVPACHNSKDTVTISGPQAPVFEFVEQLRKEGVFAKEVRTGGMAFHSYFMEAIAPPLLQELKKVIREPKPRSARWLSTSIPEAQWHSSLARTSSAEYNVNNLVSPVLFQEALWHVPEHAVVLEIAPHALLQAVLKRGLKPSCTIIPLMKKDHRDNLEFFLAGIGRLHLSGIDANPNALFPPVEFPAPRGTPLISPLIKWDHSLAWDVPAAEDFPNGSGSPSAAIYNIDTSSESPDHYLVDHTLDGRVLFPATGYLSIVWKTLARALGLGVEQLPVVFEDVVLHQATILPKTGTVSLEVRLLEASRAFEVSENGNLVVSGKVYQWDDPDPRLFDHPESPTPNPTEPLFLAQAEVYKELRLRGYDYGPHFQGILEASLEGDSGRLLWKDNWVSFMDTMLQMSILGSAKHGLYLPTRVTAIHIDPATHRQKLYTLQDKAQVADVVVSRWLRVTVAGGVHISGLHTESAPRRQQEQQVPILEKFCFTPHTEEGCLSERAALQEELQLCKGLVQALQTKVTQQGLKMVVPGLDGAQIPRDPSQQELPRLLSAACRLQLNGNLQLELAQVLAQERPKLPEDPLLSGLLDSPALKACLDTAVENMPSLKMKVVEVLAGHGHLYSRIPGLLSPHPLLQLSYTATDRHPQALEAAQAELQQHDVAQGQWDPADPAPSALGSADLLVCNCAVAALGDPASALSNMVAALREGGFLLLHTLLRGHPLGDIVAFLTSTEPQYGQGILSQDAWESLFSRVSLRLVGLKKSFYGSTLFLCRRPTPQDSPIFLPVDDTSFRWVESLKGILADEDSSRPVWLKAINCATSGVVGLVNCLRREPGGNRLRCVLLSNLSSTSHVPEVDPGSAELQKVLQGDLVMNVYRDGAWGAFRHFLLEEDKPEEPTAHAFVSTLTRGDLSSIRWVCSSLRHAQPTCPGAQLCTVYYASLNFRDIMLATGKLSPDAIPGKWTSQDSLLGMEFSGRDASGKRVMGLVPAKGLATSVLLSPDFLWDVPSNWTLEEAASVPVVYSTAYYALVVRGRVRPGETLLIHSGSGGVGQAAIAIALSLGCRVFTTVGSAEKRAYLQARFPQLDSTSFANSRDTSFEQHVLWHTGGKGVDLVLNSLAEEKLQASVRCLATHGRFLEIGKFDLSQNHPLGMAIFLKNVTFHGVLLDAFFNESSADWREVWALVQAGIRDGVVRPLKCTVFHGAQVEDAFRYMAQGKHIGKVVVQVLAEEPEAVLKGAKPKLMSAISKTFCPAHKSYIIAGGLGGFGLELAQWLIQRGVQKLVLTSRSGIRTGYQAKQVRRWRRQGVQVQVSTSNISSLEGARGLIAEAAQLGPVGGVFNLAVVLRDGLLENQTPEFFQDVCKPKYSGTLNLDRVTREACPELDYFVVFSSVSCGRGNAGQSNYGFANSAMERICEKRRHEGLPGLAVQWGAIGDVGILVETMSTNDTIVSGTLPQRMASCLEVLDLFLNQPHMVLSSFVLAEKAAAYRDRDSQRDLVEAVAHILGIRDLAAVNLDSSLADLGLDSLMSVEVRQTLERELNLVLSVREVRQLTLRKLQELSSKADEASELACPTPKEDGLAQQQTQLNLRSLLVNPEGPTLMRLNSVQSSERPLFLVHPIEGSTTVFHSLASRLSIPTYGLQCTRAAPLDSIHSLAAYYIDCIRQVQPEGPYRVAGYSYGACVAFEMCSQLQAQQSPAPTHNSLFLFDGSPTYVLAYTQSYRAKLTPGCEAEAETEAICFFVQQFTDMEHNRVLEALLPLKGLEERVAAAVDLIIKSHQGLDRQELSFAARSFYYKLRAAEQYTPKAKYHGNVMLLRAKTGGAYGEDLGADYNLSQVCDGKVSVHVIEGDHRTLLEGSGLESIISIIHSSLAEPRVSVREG
For test [17], the target named is T5, Fatty acid synthase. As to the kind of experiment: FAS thioesterase domain inhibitors, dose response, biochemical, kinetic fluorescence intensity (AID 624326).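 Further: rate of fluorescence rise from hydrolysis of a fluorogenic O-methyl fluorescein ester substrate.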 Format: functional.
A short description of test [18]: Jurkat T cell cytotoxicity, dose response, cytotoxicity control for P. falciparum gametocyte viability project, luminescence (AID 1117277).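 Further: potency reflects loss of cellular ATP meaning fewer viable cells.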 Format: functional, cell-based.
Test [19] deals with T6, Heat shock factor protein 1 (Mus musculus, UniProt P38532).
T6 sequence (P38532 whole entry): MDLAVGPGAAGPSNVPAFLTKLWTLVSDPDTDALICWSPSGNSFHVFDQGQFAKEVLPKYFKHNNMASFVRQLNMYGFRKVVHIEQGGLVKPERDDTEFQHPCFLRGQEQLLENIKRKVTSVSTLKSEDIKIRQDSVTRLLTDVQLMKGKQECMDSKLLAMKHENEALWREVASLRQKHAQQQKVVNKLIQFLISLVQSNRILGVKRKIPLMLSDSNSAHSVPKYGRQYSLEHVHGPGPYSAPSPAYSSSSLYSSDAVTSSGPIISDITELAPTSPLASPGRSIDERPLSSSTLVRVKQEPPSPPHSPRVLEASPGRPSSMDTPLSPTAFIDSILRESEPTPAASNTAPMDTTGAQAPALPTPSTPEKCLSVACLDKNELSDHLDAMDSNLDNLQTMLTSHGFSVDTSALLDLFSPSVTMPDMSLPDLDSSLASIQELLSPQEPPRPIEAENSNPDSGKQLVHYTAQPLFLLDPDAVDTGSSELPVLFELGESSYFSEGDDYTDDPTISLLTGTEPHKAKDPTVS
Nature of the test: HSF1 potentiators in luciferase reporter cells, confirmation, cell-based, NIH3T3, luminescence, dose retest (AID 435004).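 Further: stress induced by proteasome inhibitor MG132 added 30 min after compound; luciferase reporter driven by HSF1 response element in NIH3T3 cells; actives raise luminescence as potentiators of the MG132 stress response.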 The test is classed as functional.

Test [20] in a line: P. falciparum late gametocyte killing, dose response, luminescence (AID 1117278).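 Further: gametocytes exposed to compound for 24 hours.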 The test is classed as functional, cell-based.
Another test is described as follows: cells. Format: functional, cell-based. Particulars: INS-1E.
Test [21] is described as follows: Dose-response inhibition of insulin secretion in a rat insulinoma line at 5 mM glucose (AID 1117331). Format: functional, cell-based. Particulars: INS-1E.
Test [22] can be described thus: inhibitors of Vif binding to APOBEC3G peptide, primary screen, biochemical, TR-FRET, GST-Vif 1-94, biotin-A3G peptide, dose response retest (AID 1117319).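 Further: TR-FRET signal of purified GST-Vif binding a biotinylated A3G peptide; inhibitors lower the FRET signal by blocking Vif and A3G binding.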 The test is classed as functional.
A short description of test [23]: HEp-2 cell cytotoxicity, dose response, cytotoxicity control for RSV inhibitor project, HTS (AID 2410). The test is classed as functional. Particulars: human respiratory syncytial virus.
Test [24] addresses Voltage-gated inwardly rectifying potassium channel KCNH2 (Homo sapiens, UniProt Q12809). Nature of the test: hERG protection from proarrhythmic block, potency, dose response, cell-based, thallium flux (AID 2121). The test is classed as ADME.

The source of these data is ChEMBL document CHEMBL1201862, “PubChem BioAssay data set” (2004).

Structures are written as SMILES. Where a name gives a salt, the structure may show the parent alone. Activity calls are given as the source filed them.

Regarding `CN(C)c1ccc(C2Nc3cccc4cccc(c34)N2)cc1`, in test [1], the IC50 is 6.25 µM (active).

On to `O=C1CSC(c2nn(-c3ccccc3)cc2-c2cc3ccccc3oc2=O)N1Cc1ccco1` (configuration not stated), for which the half-maximal cytotoxic concentration (CC50) in test [2] was > 40 µM (active). Also, in test [3], the IC50 was 19.2 µM (active). For the same molecule, the EC50 in test [4] is > 53 µM (inactive).

As for `Cn1cc/c(=N\C=C(C#N)C#N)c2ccccc21`, the EC50 in [5] is recorded as 3.98 µM (not active).

Regarding `N=C(NOC(=O)c1cc(Br)ccc1Cl)c1ccccn1`, the EC50 in [6] was 31.4 µM (inactive); in test [7], > 67.5 µM (inactive); in test [8] it was > 67.5 µM (inactive). For the same molecule, the IC50 in [9] was > 67.5 µM (inactive); on Protein skinhead-1, 41.8 µM (active).

Turning to `OC[C@H]1Nc2ccc(-c3cccc(F)c3)cc2[C@@H]2[C@H]1CCN2Cc1ccc(F)cc1`, the AC50 is > 39 µM (inactive) in test [10] and 4.27 µM (active) in test [11].

As for `Brc1ccc2nc(-c3ccccc3)cc(NCCCN3CCCCC3)c2c1`, the IC50 in test [12] and in [13] was > 80 µM (inactive) throughout.

`Cc1cc(NC(=O)CS(=O)(=O)c2cn(Cc3cccc(-c4ccn(C)n4)c3)c3ccccc23)no1`: the EC50 in test [14] is 3.45 µM (active).

`CCOC(=O)N1CCN(C(=O)CSc2nnc(-c3c[nH]c4ccccc34)n2CCOC)CC1`: on Ephrin type-A receptor 4, the IC50 is > 100 µM (not active).

As to `Cc1sc(NC(=O)CSc2nnc(COc3ccc(Cl)cc3)n2C)c(C#N)c1C`, the IC50 in test [15] is > 50 µM (not active).

Regarding `Cc1cc2c(cc1C)C(c1cccc([N+](=O)[O-])c1)CC(=O)N2` (configuration not stated), the IC50 is 5.61 µM (active) at Fatty acid synthase [16], 7.33 µM (active) on Fatty acid synthase [17], > 83.2 µM (inactive) in test [18] and > 109 µM (inactive) in [20]. The EC50 in [19] is > 260 µM (inactive).

On to `CN(C)CCC[C@@]1(c2ccc(F)cc2)OCc2cc(C#N)ccc21` [ESCITALOPRAM OXALATE], for which the figures for the IC50 (in the test “cells”; in test [21]) were > 33.3 µM (inactive) and 5.45 µM (inactive), respectively.

For `CCc1ccccc1NC(=O)CC(O)(C(=O)OC)C(F)(F)F` (configuration not stated), the IC50 in test [22] was > 100 µM (active).

On to `Sc1ncnc2c1sc1nc(-c3ccccc3)c3c(c12)CCCC3`, for which the 50% cytotoxic concentration (CC50) in test [23] was 16.9 µM (active). Moreover, the EC50 in test [24] is 1.69 µM (active).
